Data: ChEMBL document CHEMBL1201862, “PubChem BioAssay data set” (2004)
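Tested at 5 concentrations; 48 h exposure; 96-well plates; endpoints linearly interpolated, else capped at highest concentration. The concentration for 50% growth inhibition is given as GI50.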 Active and inactive are the calls of the source. No stated cut-off is given here; in the data, active = GI50 up to about 1.1 µM and inactive = higher.

Tests used:
Experiment in all cases: NCI anticancer screen, dose series, 48 h
786-0 = tested on: 786-0
A498 = tested on: A498
A549 = tested on: A549
ACHN = tested on: ACHN
BT-549 = tested on: BT-549
CAKI-1 = tested on: CAKI-1
CCRF-CEM = tested on: CCRF-CEM
COLO 205 = tested on: COLO 205
DU-145 = tested on: DU-145
EKVX = tested on: EKVX
HCC 2998 = tested on: HCC 2998
HCT-116 = tested on: HCT-116
HCT-15 = tested on: HCT-15
HL-60 = tested on: HL-60
HOP-62 = tested on: HOP-62
HOP-92 = tested on: HOP-92
HT-29 = tested on: HT-29
Hs-578T = tested on: Hs-578T
IGROV-1 = tested on: IGROV-1
K562 = tested on: K562
KM12 = tested on: KM12
LOX IMVI = tested on: LOX IMVI
M14 = tested on: M14
MCF7 = tested on: MCF7
MDA-MB-231 = tested on: MDA-MB-231
MDA-MB-435 = tested on: MDA-MB-435
MOLT-4 = tested on: MOLT-4
Malme-3M = tested on: Malme-3M
NCI-H226 = tested on: NCI-H226
NCI-H23 = tested on: NCI-H23
NCI-H460 = tested on: NCI-H460
NCI-H522 = tested on: NCI-H522
NCI/ADR-RES = tested on: NCI/ADR-RES
OVCAR-3 = tested on: OVCAR-3
OVCAR-4 = tested on: OVCAR-4
OVCAR-5 = tested on: OVCAR-5
OVCAR-8 = tested on: OVCAR-8
PC-3 = tested on: PC-3
RPMI-8226 = tested on: RPMI-8226
RXF 393 = tested on: RXF 393
SF-268 = tested on: SF-268
SF-295 = tested on: SF-295
SF-539 = tested on: SF-539
SK-MEL-28 = tested on: SK-MEL-28
SK-MEL-2 = tested on: SK-MEL-2
SK-MEL-5 = tested on: SK-MEL-5
SK-OV-3 = tested on: SK-OV-3
SN12C = tested on: SN12C
SNB-19 = tested on: SNB-19
SNB-75 = tested on: SNB-75
SR = tested on: SR
SW-620 = tested on: SW-620
T47D = tested on: T47D
TK-10 = tested on: TK-10
U-251 = tested on: U-251
UACC-257 = tested on: UACC-257
UACC-62 = tested on: UACC-62
UO-31 = tested on: UO-31
MDA-N = tested on: MDA-N

Measured: GI50

COc1cc(/C=C2\C[C@H]3[C@@H]4CC=C5C[C@@H](N6CCCC6)CC[C@]5(C)[C@H]4CC[C@]3(C)[C@H]2O)cc(OC)c1OC
inactive: 786-0 4.11 µM | A498 16.6 µM | A549 10.6 µM | ACHN 15.8 µM | BT-549 16.1 µM | CAKI-1 15.5 µM | CCRF-CEM 3.72 µM | COLO 205 14.8 µM | DU-145 16.8 µM | EKVX 16.1 µM | HCC 2998 7.83 µM | HCT-116 13.2 µM | HL-60 9.12 µM | HOP-62 16.1 µM | HOP-92 12.5 µM | HT-29 3.38 µM | Hs-578T 6.11 µM | IGROV-1 15.9 µM | K562 13 µM | KM12 7.57 µM | LOX IMVI 8.57 µM | M14 2.2 µM | MCF7 8.71 µM | MDA-MB-231 17.5 µM | MDA-MB-435 4.45 µM | MOLT-4 8.11 µM | Malme-3M 11.7 µM | NCI-H226 21.2 µM | NCI-H23 14.9 µM | NCI-H460 3.78 µM | NCI-H522 13.4 µM | NCI/ADR-RES 15.8 µM | OVCAR-3 15.5 µM | OVCAR-4 13.8 µM | OVCAR-5 8.79 µM | OVCAR-8 11 µM | PC-3 13.4 µM | RPMI-8226 6.4 µM | RXF 393 7.57 µM | SF-268 3.28 µM | SF-295 13 µM | SF-539 16.3 µM | SK-MEL-28 17.4 µM | SK-MEL-2 19.5 µM | SK-MEL-5 14.5 µM | SK-OV-3 18.6 µM | SN12C 13.2 µM | SNB-19 18.8 µM | SNB-75 12.1 µM | SR 2.63 µM | SW-620 8.04 µM | T47D 20 µM | TK-10 20.3 µM | U-251 15.4 µM | UACC-257 15 µM | UACC-62 18.6 µM | UO-31 2.8 µM
11.7 µM: HCT-15

O=C1/C(=C\c2cccc(Oc3ccccc3)c2)SC(c2ccccc2)N1c1cccc(Cl)c1 (stereo not drawn)
> 100 µM: HCT-15
inactive: 786-0 > 100 µM | A498 > 100 µM | A549 > 100 µM | ACHN > 100 µM | BT-549 > 100 µM | CAKI-1 > 100 µM | COLO 205 > 100 µM | DU-145 > 100 µM | EKVX > 100 µM | HCC 2998 > 100 µM | HCT-116 > 100 µM | HOP-62 > 100 µM | HOP-92 > 100 µM | HT-29 > 100 µM | Hs-578T > 100 µM | K562 > 100 µM | KM12 35.8 µM | LOX IMVI > 100 µM | M14 > 100 µM | MDA-MB-231 > 100 µM | MDA-MB-435 92.7 µM | MDA-N > 100 µM | MOLT-4 > 100 µM | Malme-3M > 100 µM | NCI-H226 > 100 µM | NCI-H23 > 100 µM | NCI-H460 > 100 µM | NCI/ADR-RES > 100 µM | OVCAR-3 > 100 µM | OVCAR-4 > 100 µM | OVCAR-5 > 100 µM | OVCAR-8 > 100 µM | RPMI-8226 > 100 µM | RXF 393 64.1 µM | SF-268 > 100 µM | SF-295 > 100 µM | SK-MEL-28 > 100 µM | SK-MEL-2 > 100 µM | SK-MEL-5 > 100 µM | SK-OV-3 > 100 µM | SN12C > 100 µM | SNB-19 > 100 µM | SW-620 > 100 µM | T47D > 100 µM | TK-10 > 100 µM | U-251 > 100 µM | UACC-257 > 100 µM | UACC-62 > 100 µM | UO-31 > 100 µM
